This note sets out measurements from patent US11713338B2, “Cyclic peptides multimers targeting α-4-β-7 integrin” (priority 2016, dated 2023).

Where two headings read alike, the source gives them in different places.

In this assay the target is T1, integrin α4β7 on α4β7+ memory T helper cells (Homo sapiens, UniProt P13612+P26010).
T1 construct: endogenous in cells
T1 sequence (P13612 34-1032): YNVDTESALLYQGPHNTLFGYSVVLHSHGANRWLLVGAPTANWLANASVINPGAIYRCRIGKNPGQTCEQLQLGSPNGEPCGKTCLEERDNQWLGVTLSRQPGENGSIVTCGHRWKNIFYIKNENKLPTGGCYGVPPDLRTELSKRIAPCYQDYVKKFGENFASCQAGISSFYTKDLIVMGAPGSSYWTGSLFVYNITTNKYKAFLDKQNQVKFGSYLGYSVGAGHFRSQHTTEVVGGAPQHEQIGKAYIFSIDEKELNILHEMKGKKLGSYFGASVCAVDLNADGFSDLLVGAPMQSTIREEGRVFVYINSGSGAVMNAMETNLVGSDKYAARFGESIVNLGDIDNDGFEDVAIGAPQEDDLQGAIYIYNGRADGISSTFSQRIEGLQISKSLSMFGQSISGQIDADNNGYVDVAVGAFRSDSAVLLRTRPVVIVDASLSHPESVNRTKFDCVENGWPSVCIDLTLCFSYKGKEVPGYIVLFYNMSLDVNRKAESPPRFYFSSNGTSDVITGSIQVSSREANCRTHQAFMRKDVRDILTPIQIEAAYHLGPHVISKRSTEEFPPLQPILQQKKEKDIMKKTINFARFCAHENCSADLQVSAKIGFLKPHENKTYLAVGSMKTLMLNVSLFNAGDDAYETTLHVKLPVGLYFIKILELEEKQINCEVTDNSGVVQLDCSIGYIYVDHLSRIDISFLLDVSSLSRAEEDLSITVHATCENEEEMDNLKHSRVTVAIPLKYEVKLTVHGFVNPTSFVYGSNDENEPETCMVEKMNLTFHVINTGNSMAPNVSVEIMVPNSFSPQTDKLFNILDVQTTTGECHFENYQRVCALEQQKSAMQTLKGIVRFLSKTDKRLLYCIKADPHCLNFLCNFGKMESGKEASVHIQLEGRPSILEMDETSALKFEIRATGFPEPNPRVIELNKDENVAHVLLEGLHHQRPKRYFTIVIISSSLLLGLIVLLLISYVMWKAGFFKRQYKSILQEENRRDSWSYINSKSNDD
T1 sequence (P26010 20-798): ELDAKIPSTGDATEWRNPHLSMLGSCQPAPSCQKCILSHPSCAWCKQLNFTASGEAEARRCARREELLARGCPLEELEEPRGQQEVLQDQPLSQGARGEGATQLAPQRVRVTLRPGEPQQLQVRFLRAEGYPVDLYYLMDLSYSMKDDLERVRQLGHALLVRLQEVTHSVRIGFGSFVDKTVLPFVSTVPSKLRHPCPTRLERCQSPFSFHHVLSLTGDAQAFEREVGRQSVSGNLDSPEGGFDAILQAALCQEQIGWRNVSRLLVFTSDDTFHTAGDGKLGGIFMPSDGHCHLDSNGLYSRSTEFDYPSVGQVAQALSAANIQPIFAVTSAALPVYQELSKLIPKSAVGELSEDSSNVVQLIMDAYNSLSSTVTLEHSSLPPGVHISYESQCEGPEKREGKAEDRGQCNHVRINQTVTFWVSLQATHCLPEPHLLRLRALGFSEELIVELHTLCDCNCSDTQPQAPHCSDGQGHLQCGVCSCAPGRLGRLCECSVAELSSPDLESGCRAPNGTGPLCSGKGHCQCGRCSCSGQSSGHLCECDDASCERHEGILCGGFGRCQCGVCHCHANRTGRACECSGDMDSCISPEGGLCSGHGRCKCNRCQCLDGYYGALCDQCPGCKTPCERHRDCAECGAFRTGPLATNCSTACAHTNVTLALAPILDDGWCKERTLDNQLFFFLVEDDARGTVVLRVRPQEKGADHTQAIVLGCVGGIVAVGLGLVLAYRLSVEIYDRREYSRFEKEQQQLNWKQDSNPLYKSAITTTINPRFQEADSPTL
Nature of the assay: MAdCAM-1 competition / receptor occupancy assay in human whole blood, α4β7-positive Th memory cells. In kind it is cell-based. Summed up:
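Human heparinised whole blood; saturating biotinylated rhMAdCAM-1-Fc or rhVCAM-1-Fc bound 1 h at RT, stained in buffer with 4 mM MnCl2, detected by streptavidin-APC flow cytometry on gated CD45+CD3+CD4+CD45RO+CD49d+ β7+ or β7-lo cells. Occupancy = 100−((% ligand-positive cells with compound/% ligand-positive cells DMSO)*100).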

The mark [1] stands for this setting: human whole blood, inhibition of MAdCAM-1 binding to α4β7-positive Th memory cells, FACS, read-out: MADCAM FACS α4β7 Th mem.

As for `CC(C)C[C@@H]1NC(=O)C[C@H](CCCCN)N(C)C(=O)[C@H](CCCCNC(=O)CCOCCOCCOCCOCCOCCOCCOCCC(=O)NCCCC[C@@H]2NC(=O)[C@@H]3CCCN3[C@H](C(=O)NC(C)(C)C)[C@H](C)NC(=O)[C@H]([C@@H](C)O)NC(=O)[C@H](CC(=O)O)NC(=O)[C@H](CC(C)C)NC(=O)C[C@H](CCCCN)N(C)C2=O)NC(=O)[C@@H]2CCCN2[C@H](C(=O)NC(C)(C)C)[C@H](C)NC(=O)[C@H]([C@@H](C)O)NC(=O)[C@H](CC(=O)O)NC1=O` [Compound 536], the IC50 under setting [1] was found to be 75 nM.

`CC(C)C[C@@H]1NC(=O)C[C@H](CCCCN)N(C)C(=O)[C@H](CCCCNC(=O)c2ccccc2-c2ccccc2C(=O)NCCCC[C@@H]2NC(=O)[C@@H]3CCCN3[C@H](C(=O)NC(C)(C)C)[C@H](C)NC(=O)[C@H]([C@@H](C)O)NC(=O)[C@H](CC(=O)O)NC(=O)[C@H](CC(C)C)NC(=O)C[C@H](CCCCN)N(C)C2=O)NC(=O)[C@@H]2CCCN2[C@H](C(=O)NC(C)(C)C)[C@H](C)NC(=O)[C@H]([C@@H](C)O)NC(=O)[C@H](CC(=O)O)NC1=O` [Compound 535]: the IC50 by setting is: (human whole blood, FIG. 7, read-out: IC50, MAdCAM-1 competition on α4β7-positive primary cells) 76 nM; under setting [1], 77 nM.

Consider `CC(C)C[C@@H]1NC(=O)c2ccc(-c3ccc(N4CCN(CCC(=O)N5CCN(c6ccc(-c7ccc8cc7CNC(=O)[C@@H]7CCCN7[C@H](C(=O)NC(C)(C)C)[C@H](C)NC(=O)[C@H]([C@@H](C)O)NC(=O)[C@H](CC(=O)O)NC(=O)[C@H](CC(C)C)NC8=O)cc6)CC5)CC4)cc3)c(c2)CNC(=O)[C@@H]2CCCN2[C@H](C(=O)NC(C)(C)C)[C@H](C)NC(=O)[C@H]([C@@H](C)O)NC(=O)[C@H](CC(=O)O)NC1=O` [Compound 482], for which, under setting [1], the IC50 was 30 nM.

`CC(C)C[C@@H]1NC(=O)C[C@H](CCCCN)N(C)C(=O)[C@H](CCCCN)NC(=O)[C@@H]2CCCN2[C@H](C(=O)NC(C)(C)C)[C@H](C)NC(=O)[C@H]([C@@H](C)O)NC(=O)[C@H](CC(=O)O)NC1=O` [Compound 456]: the receptor occupancy at 1 µM (human whole blood, 1000 nM, read-out: receptor occupancy at maximum concentration) came out at 15%. In addition, the IC50 (human whole blood, inhibition of MAdCAM-1 binding to α4β7-positive Th memory cells, FACS, read-out: MADCAM FACS a4b7 Th mem) amounted to 1000 nM.

As to `CC(C)C[C@@H]1NC(=O)c2ccc(-c3ccc(N4CCN(CC(=O)N5CCN(c6ccc(-c7ccc8cc7CNC(=O)[C@@H]7CCCN7[C@H](C(=O)NC(C)(C)C)[C@H](C)NC(=O)[C@H]([C@@H](C)O)NC(=O)[C@H](CC(=O)O)NC(=O)[C@H](CC(C)C)NC8=O)cc6)CC5)CC4)cc3)c(c2)CNC(=O)[C@@H]2CCCN2[C@H](C(=O)NC(C)(C)C)[C@H](C)NC(=O)[C@H]([C@@H](C)O)NC(=O)[C@H](CC(=O)O)NC1=O` [Compound 481], under setting [1], the IC50 is 67 nM.

For `CC(C)C[C@@H]1NC(=O)C[C@H](CCCCN)N(C)C(=O)[C@H](CCCCNC(=O)CCCCCC(=O)NCCCC[C@@H]2NC(=O)[C@@H]3CCCN3[C@H](C(=O)NC(C)(C)C)[C@H](C)NC(=O)[C@H]([C@@H](C)O)NC(=O)[C@H](CC(=O)O)NC(=O)[C@H](CC(C)C)NC(=O)C[C@H](CCCCN)N(C)C2=O)NC(=O)[C@@H]2CCCN2[C@H](C(=O)NC(C)(C)C)[C@H](C)NC(=O)[C@H]([C@@H](C)O)NC(=O)[C@H](CC(=O)O)NC1=O` [Compound 532], the IC50 under setting [1] was 57 nM.

`CC(C)C[C@@H]1NC(=O)c2ccc(-c3ccc(N4CCN(C(=O)CCC(=O)N5CCN(c6ccc(-c7ccc8cc7CNC(=O)[C@@H]7CCCN7[C@H](C(=O)NC(C)(C)C)[C@H](C)NC(=O)[C@H]([C@@H](C)O)NC(=O)[C@H](CC(=O)O)NC(=O)[C@H](CC(C)C)NC8=O)cc6)CC5)CC4)cc3)c(c2)CNC(=O)[C@@H]2CCCN2[C@H](C(=O)NC(C)(C)C)[C@H](C)NC(=O)[C@H]([C@@H](C)O)NC(=O)[C@H](CC(=O)O)NC1=O` [Compound 484]: the IC50 under setting [1] stood at 45 nM.

Regarding `CC(C)C[C@@H]1NC(=O)C[C@H](CCCCN)N(C)C(=O)[C@H](CCCCNC(=O)CCCCCCCC(=O)NCCCC[C@@H]2NC(=O)[C@@H]3CCCN3[C@H](C(=O)NC(C)(C)C)[C@H](C)NC(=O)[C@H]([C@@H](C)O)NC(=O)[C@H](CC(=O)O)NC(=O)[C@H](CC(C)C)NC(=O)C[C@H](CCCCN)N(C)C2=O)NC(=O)[C@@H]2CCCN2[C@H](C(=O)NC(C)(C)C)[C@H](C)NC(=O)[C@H]([C@@H](C)O)NC(=O)[C@H](CC(=O)O)NC1=O` [Compound 533], under setting [1], the IC50 stood at 46 nM.

Broadly, the EC50 is the concentration at which the effect is half-maximal. `CC(C)C[C@@H]1NC(=O)c2ccc(-c3ccc(N4CCN(C(=O)COCC(=O)N5CCN(c6ccc(-c7ccc8cc7CNC(=O)[C@@H]7CCCN7[C@H](C(=O)NC(C)(C)C)[C@H](C)NC(=O)[C@H]([C@@H](C)O)NC(=O)[C@H](CC(=O)O)NC(=O)[C@H](CC(C)C)NC8=O)cc6)CC5)CC4)cc3)c(c2)CNC(=O)[C@@H]2CCCN2[C@H](C(=O)NC(C)(C)C)[C@H](C)NC(=O)[C@H]([C@@H](C)O)NC(=O)[C@H](CC(=O)O)NC1=O` [Compound 390]: the EC50 (human whole blood, FIG. 7, read-out: EC50, competition with saturating amount of MAdCAM) was 90 nM. The IC50 under setting [1] amounted to 90 nM.

In the case of `CC(C)C[C@@H]1NC(=O)c2ccc(-c3ccc(N4CCN(C(=O)c5ccc(-c6ccc(C(=O)N7CCN(c8ccc(-c9ccc%10cc9CNC(=O)[C@@H]9CCCN9[C@H](C(=O)NC(C)(C)C)[C@H](C)NC(=O)[C@H]([C@@H](C)O)NC(=O)[C@H](CC(=O)O)NC(=O)[C@H](CC(C)C)NC%10=O)cc8)CC7)cc6)cc5)CC4)cc3)c(c2)CNC(=O)[C@@H]2CCCN2[C@H](C(=O)NC(C)(C)C)[C@H](C)NC(=O)[C@H]([C@@H](C)O)NC(=O)[C@H](CC(=O)O)NC1=O` [Compound 474], under setting [1], the IC50 turned out to be 74 nM.

For `CC(C)C[C@@H]1NC(=O)C[C@H](CCCCN)N(C)C(=O)[C@H](CCCCNC(=O)CCCCCCCCC(=O)NCCCC[C@@H]2NC(=O)[C@@H]3CCCN3[C@H](C(=O)NC(C)(C)C)[C@H](C)NC(=O)[C@H]([C@@H](C)O)NC(=O)[C@H](CC(=O)O)NC(=O)[C@H](CC(C)C)NC(=O)C[C@H](CCCCN)N(C)C2=O)NC(=O)[C@@H]2CCCN2[C@H](C(=O)NC(C)(C)C)[C@H](C)NC(=O)[C@H]([C@@H](C)O)NC(=O)[C@H](CC(=O)O)NC1=O` [Compound 530], the IC50 under setting [1] came out at 33 nM and the IC50 (whole blood from a single donor, FIG. 10, read-out: IC50, inhibition of MAdCAM-1 binding to primary cells) lay within 87 to 141 nM.

Turning to `CC(C)C[C@@H]1NC(=O)c2ccc(-c3ccc(N4CCN(C(=O)C5(C(=O)N6CCN(c7ccc(-c8ccc9cc8CNC(=O)[C@@H]8CCCN8[C@H](C(=O)NC(C)(C)C)[C@H](C)NC(=O)[C@H]([C@@H](C)O)NC(=O)[C@H](CC(=O)O)NC(=O)[C@H](CC(C)C)NC9=O)cc7)CC6)Cc6ccccc6C5)CC4)cc3)c(c2)CNC(=O)[C@@H]2CCCN2[C@H](C(=O)NC(C)(C)C)[C@H](C)NC(=O)[C@H]([C@@H](C)O)NC(=O)[C@H](CC(=O)O)NC1=O` [Compound 461], the IC50 under setting [1] turned out to be 93 nM.
